Measured values published in ChEMBL document CHEMBL1201862, “PubChem BioAssay data set” (2004).
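Test compounds were applied to cells in 96-well plates for 48 hours at 5 doses. GI50 is the concentration that inhibits growth by half.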 Activity calls are given as the source filed them. Cut-off read from the data, not from the text of the source: active = GI50 up to about 1.1 µM and inactive = higher.

Assays:
Assay in all cases: inhibition of tumour cell growth, NCI panel, 48 h
[1] = tested on: T47D
[2] = tested on: MCF7
[3] = tested on: MDA-N
[4] = tested on: KM-20L2
[5] = tested on: XF498
[6] = tested on: DLD-1
[7] = tested on: M19-MEL
[8] = tested on: DMS-114

Structure (SMILES) | GI50 [1] | GI50 [2] | GI50 [3] | GI50 [4] | GI50 [5] | GI50 [6] | GI50 [7] | GI50 [8]
Nc1nc(Br)nc2ncn(C3CC(O)C(CO)O3)c12 (stereo not drawn) | > 100 µM (inactive) | > 21.3 µM (inactive) | > 68.7 µM (inactive) |  |  |  |  | 
C=C1CC2(CCCC3(CC(=C)C(=O)O3)C2(C)C)OC1=O (stereo not drawn) | 3.33 µM (inactive) | 3.4 µM (inactive) |  |  |  |  |  | 
Cc1cc2c(C)nn(Cc3ccc(Cl)cc3Cl)c2c(C#N)c1C |  |  |  | > 100 µM (inactive) | 29.1 µM (inactive) | > 100 µM (inactive) | > 100 µM (inactive) | 
O/N=N/c1ccccn1.OCC1OC2OC3C(CO)OC(OC4C(CO)OC(OC5C(CO)OC(OC6C(CO)OC(OC7C(CO)OC(OC1C(O)C2O)C(O)C7O)C(O)C6O)C(O)C5O)C(O)C4O)C(O)C3O (stereo not drawn) | > 100 µM (inactive) | > 100 µM (inactive) | 19.9 µM (inactive) |  |  |  |  | 
COc1ccc(CN(CCN(C)C)c2ccccn2)cc1.Cn1c(=O)c2[nH]c(Br)nc2n(C)c1=O |  |  |  | > 100 µM (inactive) | > 100 µM (inactive) | > 100 µM (inactive) |  | > 100 µM (inactive)
CCOC(=O)C(SCCO)C(C(=O)OCC)n1ccc(N)nc1=O (stereo not drawn) | > 100 µM (inactive) | > 100 µM (inactive) | > 100 µM (inactive) |  |  |  |  | 
O=C1OC(c2ccccc2)=N/C1=C/NC(Cc1c[nH]cn1)C(=O)O (stereo not drawn) |  |  |  | > 100 µM (inactive) | > 100 µM (inactive) | > 100 µM (inactive) | > 100 µM (inactive) | > 100 µM (inactive)
CC1CC(C)CN(S(=O)(=O)c2cc(Cl)c(Oc3ccc([N+](=O)[O-])cc3Cl)c(Cl)c2)C1 (stereo not drawn) | > 100 µM (inactive) | > 100 µM (inactive) | > 100 µM (inactive) |  |  |  |  | 
CCOC(=O)C1=C(C)N(Cc2ccc(Cl)cc2Cl)C2(O)C=CC(=O)C3C(=O)N(c4ccccc4)C(=O)C132 (stereo not drawn) | 1.55 µM (inactive) | 0.857 µM (active) |  |  |  |  |  | 
COC(=O)[C@@]1(C(C)CC(=O)O)CCCCC1=O (stereo partly drawn) |  |  |  | > 100 µM (inactive) | > 100 µM (inactive) | > 100 µM (inactive) | > 100 µM (inactive) | 82.8 µM (inactive)
FC(F)(F)c1nc2cc(SSc3cc4nc(C(F)(F)F)[nH]c4cc3Cl)c(Cl)cc2[nH]1 |  | 65.5 µM (inactive) |  |  |  |  |  | 
CC(C)(C)[Si](C)(C)OC1C(=O)C[C@H]2CCCC[C@@H]12 (stereo partly drawn) |  |  |  | > 100 µM (inactive) | > 100 µM (inactive) | > 100 µM (inactive) | 87.9 µM (inactive) | > 100 µM (inactive)
COc1ccc(/C=C2\NC(=S)N(CN3CCCCC3)C2=O)cc1 |  | 21.8 µM (inactive) | 70.1 µM (inactive) |  |  |  |  | 
N#Cc1cc(C#N)c(N)nc1N |  | > 100 µM (inactive) | > 100 µM (inactive) |  |  |  |  | 
C[C@@]1(CO)[C@H](O)CC[C@@]2(C)[C@H]1CC[C@H]1C[C@@H]3C[C@@]12CC[C@@]3(O)COC(=O)CN | 11.4 µM (inactive) |  | 16.9 µM (inactive) |  |  |  |  | 
O=S(=O)(O)c1cc(/N=N/c2c(O)ccc3ccccc23)ccc1/C=C/c1ccc(/N=N/c2c(O)ccc3ccccc23)cc1S(=O)(=O)O | > 100 µM (inactive) |  | > 100 µM (inactive) |  |  |  |  | 
COc1ccc2c(c1)c(Cc1c(C)n(C)c3ccc(OC)cc13)c(C)n2C |  |  |  | > 100 µM (inactive) | > 100 µM (inactive) | > 100 µM (inactive) | > 100 µM (inactive) | > 100 µM (inactive)
N#Cc1nc(-c2ccco2)oc1N | > 10 µM (inactive) | > 10 µM (inactive) | > 10 µM (inactive) |  |  |  |  | 
CCNc1cc2c(cc1O)CC[C@@H]1[C@@H]2CC[C@]2(C)[C@@H](O)CC[C@@H]12 | 6.04 µM (inactive) | 8.43 µM (inactive) | 0.232 µM (active) |  |  |  |  | 
Oc1cc(-c2ccc(Cl)cc2)cn2c1nc1ccccc12 | > 100 µM (inactive) | > 100 µM (inactive) | 2.99 µM (inactive) |  |  |  |  | 
CCCCc1ccc(-n2sc3ncc([N+](=O)[O-])cc3c2=O)cc1 | 10.1 µM (inactive) | 16 µM (inactive) | 14.8 µM (inactive) |  |  |  |  | 
Cc1ccc(C(=O)Nc2ccc(CP(=O)(O)O)cc2)cc1NC(=O)c1cccc(N)c1 | > 100 µM (inactive) | > 100 µM (inactive) | > 100 µM (inactive) |  |  |  |  | 
O=C1CCC2(c3ccc(F)cc3)Nc3ncccc3N12 (stereo not drawn) |  |  |  | > 100 µM (inactive) | > 100 µM (inactive) | > 100 µM (inactive) | > 100 µM (inactive) | 
O=C(NN1C(=O)C(Cl)C1c1c(O)ccc2ccccc12)c1ccccc1O (stereo not drawn) |  |  |  |  | > 100 µM (inactive) | > 100 µM (inactive) | > 100 µM (inactive) | > 100 µM (inactive)
O=C(O)C1CCCN1Cc1ccc2c(c1)OCO2 (stereo not drawn) | > 100 µM (inactive) | > 100 µM (inactive) | > 100 µM (inactive) |  |  |  |  | 
CSc1c(C(N)=S)c(N)nn1-c1ccccc1 | > 100 µM (inactive) | > 100 µM (inactive) |  |  |  |  |  | 
CCCCCCCC(=O)NS(=O)(=O)c1ccccc1 | > 100 µM (inactive) |  | > 100 µM (inactive) |  |  |  |  | 
CC12N=NNC1C(=O)NC2=O (stereo not drawn) |  |  |  | > 100 µM (inactive) |  | > 100 µM (inactive) | > 100 µM (inactive) | > 100 µM (inactive)
COc1ccc2c(C)c(Oc3c(Cl)c(Cl)c(O)c(C#N)c3C#N)oc2c1 | > 100 µM (inactive) | > 100 µM (inactive) | > 100 µM (inactive) |  |  |  |  | 
O=c1[nH]c(=O)n(C2OC(CO)C(O)C2O)cc1OCCc1ccccc1 (stereo not drawn) | > 100 µM (inactive) | > 100 µM (inactive) | > 100 µM (inactive) |  |  |  |  | 
